The record followed here is patent publication US20240368174A1, “Antiviral Heterocyclic Compounds” (Enanta Pharmaceuticals, Inc., priority 2023, published 2024).

Experiment [1] relates to genotype A, “Long” strain RSV. The experiment can be described thus: RSV-A assay (CPE, ATPlite readout in Hep-2 cells). The experiment is classed as cell-based, Human respiratory syncytial virus. To be noted: human respiratory syncytial virus, activity class. The essentials:
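In this cytopathic-effect protection format, infected Hep-2 cultures (MOI 0.1) are exposed to compound for 5 days. Surviving cell ATP is quantified with ATPlite, and EC50 is determined.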

Experiment [2] concerns HMPV clinical isolate A2 strain TN 94-49. Put plainly: HMPV antiviral assay, Method 1 (LLC-MK2 cells, ATP-Lite). The experiment is classed as cell-based. The note with it: human metapneumovirus, hMPV A2 TN/94-49, LLC-MK2 cells. The essentials:
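LLC-MK2 cells (5,000/well) infected in suspension with HMPV A2 TN 94-49 at MOI 0.005 in serum-free OptiMEM with 2 μg/mL final TPCK-trypsin, compounds in duplicate from 2 μM top, 2.5-fold, 10 points. After 7 days at 37° C, cell health by ATP-Lite luminescence normalised to virus and cell controls; EC50 from four-parameter fit.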

Experiment [3] shares this test system. The experiment can be described thus: HMPV antiviral assay, Method 2 (LLC-MK2 cells with CP-100-356, ATP-Lite). The note with it: human metapneumovirus. The experiment is classed as cell-based. In a few lines: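 LLC-MK2 rhesus kidney cells (5,000/well) infected in suspension with HMPV A2 TN 94-49 at MOI 0.16, in serum-free medium with final 2 μg/mL TPCK-trypsin and 2 μM CP-100-356. Compounds tested in duplicate from 200 nM, 2.5-fold, 10 points; 7 days at 37 °C. Cell health by ATP-Lite luminescence; EC50 by four-parameter fit.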

Setting [4] is: hMPV A2 TN/94-49, LLC-MK2 cells with CP-100-356, Method 2.
Setting [5] is: 168 h, hMPV A2 TN/94-49, LLC-MK2 cells with 4 μM CP-100-356, 7 days, ATP-Lite.

Each structure is given as a SMILES string.

Usually EC50 stands for the midpoint of the concentration-response curve. Higher therefore signals a need for much substance. Regarding `COc1cc(C(=O)NC[C@@](O)(c2ccc(F)cc2)c2cc3c(c(-c4ccc5c(c4Cl)OC(F)(F)O5)n2)OC[C@]3(C)C(N)=O)cc2cn(C3CC3)nc12` [Example 25], the EC50 was < 200 nM in experiment [1] and < 500 nM in experiment [2].

As for `C[C@]1(C(N)=O)COc2c1cc([C@@](O)(CNC(=O)c1cc(OC3CC3)c3nn(C4CC4)cc3c1)C1CC(F)(F)C1)nc2-c1cc(F)c(F)cc1F` [Example 32], the 50% effective concentration (EC50) in experiment [1] was < 200 nM; in experiment [2] it was < 500 nM.

Turning to `C[C@]1(C(N)=O)COc2c1cc([C@@](O)(CNC(=O)c1ccc3nc(N)sc3c1)C1CC1)nc2-c1cc(F)c(F)cc1F` [Example 73], the EC50 in experiment [1] was < 200 nM; in experiment [2] it was > 500 nM.

With `Cc1nc2ccc(C(=O)NC[C@](O)(c3cc4c(c(-c5cc(Cl)c(F)cc5F)n3)OC[C@]4(C)C(N)=O)C3CC3)cc2s1` [Example 74], the figures for the EC50 in experiment [1] and in experiment [2] were < 200 nM and < 500 nM, respectively.

As for `Cc1nc2ccc(C(=O)NC[C@](O)(c3cc4c(c(-c5cc(Cl)c(F)cc5F)n3)OC[C@]4(C)C(N)=O)C3CC3)cc2o1` [Example 75], the EC50 in experiment [1] was < 200 nM; in experiment [2], < 500 nM.

On to `Cc1nc2c(OC3CC3)cc(C(=O)NC[C@](O)(c3cc4c(c(-c5cc(Cl)c(F)cc5F)n3)OC[C@]4(C)C(N)=O)C3CC3)cc2s1` [Example 76], for which the EC50 in experiment [1] was < 200 nM; in experiment [2] it was < 500 nM.

For `[2H]C([2H])([2H])c1nc2ccc(C(=O)NC[C@](O)(c3cc4c(c(-c5cc(Cl)c(F)cc5F)n3)OC[C@]4(C)C(N)=O)C3CC3)cc2o1` [Example 91], the EC50 in experiment [1] is < 200 nM; in experiment [2], < 500 nM.

Regarding `[2H]C([2H])([2H])c1nc2ccc(C(=O)NC[C@](O)(c3cc4c(c(-c5cc(F)c(F)cc5F)n3)OC[C@]4(C)C(N)=O)C3CC3)cc2o1` [Example 92], the figures for the EC50 in experiment [1] and in experiment [2] were < 200 nM and < 500 nM, respectively.

In the case of `[2H]C([2H])([2H])C1=NC2C(OC)=CC(C(=O)NC[C@](O)(c3cc4c(c(-c5ccc6c(c5Cl)OC(F)(F)O6)n3)OC[C@]4(C)C(N)=O)C3CC3)=CC2S1` (stereo partly shown) [Example 127], the figures for the EC50 in experiment [1] and in experiment [2] were < 200 nM and < 500 nM, respectively.

In the case of `COc1cc(C(=O)NC[C@](O)(c2cc3c(c(-c4ccc5c(c4Cl)OC(F)(F)O5)n2)OC[C@]3(C)C(N)=O)C2CC2)cc2cn(C3(F)CC3)nc12` [Example 128], the EC50 in experiment [1] is < 200 nM; in experiment [2], < 500 nM.

On to `C[C@]1(C(N)=O)COc2c1cc([C@@](O)(CNC(=O)c1cc(OC3CC3)c3nn(C(F)F)cc3c1)C1CC1)nc2-c1ccc2c(c1Cl)OC(F)(F)O2` [Example 129], for which the figures for the EC50 in experiment [1], in experiment [2] and in experiment [3] (setting [4]) were < 200 nM, < 500 nM and < 200 nM, respectively.

Consider `COc1cc(C(=O)NC[C@](O)(c2cc3c(c(-c4cc(Cl)c(F)cc4F)n2)OC[C@]3(C)C(N)=O)[C@H]2CC2(F)F)cc2cn(C3CC3)nc12` [Example 150], for which the EC50 in experiment [1] was < 200 nM; in experiment [2] it was < 500 nM.

On to `COc1cc(C(=O)NC[C@](O)(c2cc3c(c(-c4cc(Cl)c(F)cc4F)n2)OC[C@]3(C)C(N)=O)[C@@H]2CC2(F)F)cc2cn(C3CC3)nc12` [Example 151], for which the EC50 in experiment [1] was < 200 nM; in experiment [2], < 500 nM.

For the compound `COc1cccc([C@](O)(CNC(=O)c2cc(OC)c3nn(C(F)F)cc3c2)c2cc3c(c(-c4cc(Cl)c(F)cc4F)n2)OC[C@]3(C)C(N)=O)c1` [Example 161], the EC50 was < 200 nM in experiment [1] and < 500 nM in experiment [2].

`COc1cccc([C@](O)(CNC(=O)c2cc(OC)c3nn(C4(F)CC4)cc3c2)c2cc3c(c(-c4cc(Cl)c(F)cc4F)n2)OC[C@]3(C)C(N)=O)c1` [Example 162]: the results for the EC50 in experiment [1], in experiment [2] and in experiment [3] (setting [4]) were < 200 nM, < 500 nM and < 200 nM, respectively.

With `C=C(CNC(=O)c1cc(OC)c2nn(C3CC3)cc2c1)c1cc2c(c(-c3cc(Cl)c(F)cc3F)n1)OC[C@]2(C)C(N)=O` [Example 214], the EC50 in experiment [1] is < 200 nM; in experiment [2] it was > 500 nM.

Regarding `[2H]c1nc2c(OC(F)F)cc(C(=O)NC[C@](O)(c3cc4c(c(-c5cc(Cl)c(F)cc5F)n3)OC[C@]4(C)C(N)=O)C3CC3)cc2cc1C([2H])([2H])[2H]` [Example 218], the EC50 in experiment [1] was < 200 nM; in experiment [2], < 500 nM; in experiment [3] (setting [4]) it was < 200 nM.

As to `COc1cc(C(=O)NC[C@](O)(c2cc3c(c(-c4cc(Cl)c(F)cc4F)n2)OC[C@]3(C)C(N)=O)C2(CO)CC2)cc2cn(C3CC3)nc12` [Example 245], the EC50 in experiment [1] was < 200 nM; in experiment [2], > 500 nM.

As for `C[C@]1(C(N)=O)COc2c1cc([C@@](O)(CNC(=O)c1cc(O)c3nn(C4CC4)cc3c1)C1CC1)nc2-c1cc(F)c(F)cc1F` [Example 360], the EC50 in experiment [1] is < 200 nM; in experiment [2], > 500 nM; in experiment [3] (setting [4]), < 200 nM.

Take `COc1cc(C(=O)NC[C@](O)(c2cc3c(c(-c4ccc(F)c(Cl)c4C)n2)OC[C@]3(C)C(N)=O)C2CC2)cc2cn(C3CC3)nc12` [Example 391]: the EC50 is < 200 nM in experiment [1] and < 500 nM in experiment [2].

`COc1cc(C(=O)NC[C@](O)(c2cc3c(c(-c4ccc5c(c4C)OC(F)(F)O5)n2)OC[C@]3(C)C(N)=O)C2CC2)cc2cn(C3CC3)nc12` [Example 392]: the concentration giving a half-maximal response (EC50) in experiment [1] was < 200 nM; in experiment [2], < 500 nM.

As to `COC1=CC(C(=O)NC[C@](O)(c2cc3c(c(-c4ccnc(C(F)(F)F)c4F)n2)OC[C@]3(C)C(N)=O)C2CC2)=CC2OC(C3CC3)=NC12` (stereo partly shown) [Example 801], the EC50 in experiment [1] and in experiment [3] (setting [5]) was < 200 nM each time.

With `COc1cc(C(=O)NC[C@](O)(c2cc3c(c(-n4ncc5c(F)cccc54)n2)OC[C@]3(C)C(N)=O)C2CC2)cc2cn(C3CC3)nc12` [Example 820], the EC50 in experiment [1] and in experiment [3] (setting [5]) was < 200 nM each time.

Regarding `COc1cc(C(=O)NC[C@](O)(c2cc3c(c(-n4ncc5cc(F)ccc54)n2)OC[C@]3(C)C(N)=O)C2CC2)cc2cn(C3CC3)nc12` [Example 821], the EC50 in experiment [1] and in experiment [3] (setting [5]) was < 200 nM throughout.

As for `COc1cc(C(=O)NC[C@](O)(c2cc3c(c(-c4ccn5nccc5c4Cl)n2)OC[C@]3(C)C(N)=O)C2CC2)cc2cn(C3CC3)nc12` [Example 824], the EC50 in experiment [1] and in experiment [3] (setting [5]) was < 200 nM throughout.

With `COc1cc(C(=O)NC[C@](O)(c2cc3c(c(-n4ccc5c(F)cccc54)n2)OC[C@]3(C)C(N)=O)C(F)(F)F)cc2cn(C3CC3)nc12` [Example 851], the EC50 in experiment [1] and in experiment [3] (setting [5]) was < 200 nM each time.

Regarding `COc1cc(C(=O)NC[C@](O)(c2cc3c(c(-n4ccc5cc(F)ccc54)n2)OC[C@]3(C)C(N)=O)C(F)(F)F)cc2cn(C3CC3)nc12` [Example 852], the half-maximal effective concentration (EC50) in experiment [1] and in experiment [3] (setting [5]) was < 200 nM throughout.

Turning to `COc1cc(C(=O)NC[C@](O)(c2cc3c(c(-n4ccc5c(F)cccc54)n2)OC[C@]3(C)C(N)=O)C2(F)CC2)cc2cn(C3CC3)nc12` [Example 861], the EC50 in experiment [1] and in experiment [3] (setting [5]) was < 200 nM each time.

For `COc1cc(C(=O)NC[C@](O)(c2cc3c(c(-n4ccc5c(OC(F)F)cccc54)n2)OC[C@]3(C)C(N)=O)C2CC2)cc2cn(C3CC3)nc12` [Example 864], the EC50 in experiment [1] and in experiment [3] (setting [5]) was < 200 nM in each case.

In the case of `COc1cc(C(=O)NC[C@](O)(c2cc3c(c(-n4ccc5c(F)cccc54)n2)OC[C@]3(C)C(N)=O)C2CC2)cn2cc(C3CC3)nc12` [Example 868], the EC50 in experiment [1] and in experiment [3] (setting [5]) was < 200 nM in each case.
